Counter-ions that a name gives are not always drawn.
system: not given; assay: not given; conditions: not given

SMILES | melting point
c1ccc2[nH]c(Oc3ccc(-c4c5n(c6cccnc46)CCCC5)cc3)nc2c1 [Example 13, 10-[4-(1H-Benzimidazol-2-yloxy)phenyl]-6,7,8,9-tetrahydropyrido[2,3-b]indolizine] | 264 °C (dec.)
CCn1nc(-c2ccc(Oc3nc4cccnc4n3C)cc2)c2ncccc21 [Example 14, 1-Ethyl-3-{4-[(3-methyl-3H-imidazo[4,5-b]pyridin-2-yl)oxy]phenyl}-1H-pyrazolo[4,3-b]pyridine] | 176 to 177 °C
CC(C)n1nc(-c2ccc(Oc3nc4cccnc4n3C)cc2)c2ncccc21 [Example 18, 1-(1-Methylethyl)-3-{4-[(3-methyl-3H-imidazo[4,5-b]pyridin-2-yl)oxy]phenyl}-1H-pyrazolo[4,3-b]pyridine] | 163 to 164 °C
CCn1nc(-c2ccc(Oc3nc4cccnc4n3C)cc2)c2nccnc21 [Example 28, 1-Ethyl-3-{4-[(3-methyl-3H-imidazo[4,5-b]pyridin-2-yl)oxy]phenyl}-1H-pyrazolo[3,4-b]pyrazine] | 161 to 162 °C
CCn1nc(-c2ccc(Oc3nc4ccccc4n3CCO)cc2)c2ncccc21 [Example 29, 2-{2-[4-(1-Ethyl-1H-pyrazolo[4,3-b]pyridin-3-yl)phenoxy]-1H-benzimidazol-1-yl}ethanol] | 183 to 184 °C
CCn1nc(-c2ccc(Oc3nc4ccccc4n3CC(C)(C)O)cc2)c2ncccc21 [Example 36, 1-{2-[4-(1-Ethyl-1H-pyrazolo[4,3-b]pyridin-3-yl)phenoxy]-1H-benzimidazol-1-yl}-2-methylpropan-2-ol] | 152 to 153 °C
CCn1nc(-c2ccc(Oc3nc4cccnc4n3C)cc2)c2ncncc21 [Example 38, 1-Ethyl-3-{4-[(3-methyl-3H-imidazo[4,5-b]pyridin-2-yl)oxy]phenyl}-1H-pyrazolo[4,3-d]pyrimidine] | 218 to 220 °C

target: T1, Human PDE10A enzyme (Homo sapiens, UniProt Q9Y233); assay: PDE enzyme inhibition (SPA, [3H]cGMP); assay type: biochemical; conditions: 1 μM compound, [3H]cGMP substrate
T1 construct: Sf9 or COS-7 cells transfected with the full-length gene; His-tag; made in house; host or cells: Sf9 or COS-7 cells
T1 sequence (Q9Y233 267-1055): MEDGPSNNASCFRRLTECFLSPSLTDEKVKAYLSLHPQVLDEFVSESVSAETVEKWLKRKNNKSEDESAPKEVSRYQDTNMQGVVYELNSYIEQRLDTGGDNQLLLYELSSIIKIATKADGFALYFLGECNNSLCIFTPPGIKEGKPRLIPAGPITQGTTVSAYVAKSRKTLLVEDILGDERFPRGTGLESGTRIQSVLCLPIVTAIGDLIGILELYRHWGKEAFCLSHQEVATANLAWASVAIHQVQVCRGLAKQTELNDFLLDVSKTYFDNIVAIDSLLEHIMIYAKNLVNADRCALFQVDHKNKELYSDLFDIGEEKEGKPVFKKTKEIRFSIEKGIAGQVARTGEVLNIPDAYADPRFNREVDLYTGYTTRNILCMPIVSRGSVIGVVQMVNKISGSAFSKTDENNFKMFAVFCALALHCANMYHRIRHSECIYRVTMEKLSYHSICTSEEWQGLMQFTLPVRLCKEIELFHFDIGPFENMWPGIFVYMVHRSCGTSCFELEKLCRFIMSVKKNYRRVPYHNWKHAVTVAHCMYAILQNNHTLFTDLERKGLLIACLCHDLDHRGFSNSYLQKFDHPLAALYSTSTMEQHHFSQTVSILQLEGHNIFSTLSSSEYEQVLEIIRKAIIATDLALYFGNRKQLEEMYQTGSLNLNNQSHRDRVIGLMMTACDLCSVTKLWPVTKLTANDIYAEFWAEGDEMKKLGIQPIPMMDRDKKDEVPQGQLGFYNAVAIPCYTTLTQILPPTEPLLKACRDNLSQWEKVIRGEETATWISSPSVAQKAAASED
Method: Human PDE10A enzyme was generated from Sf9 or COS-7 cells transfected with the full-length gene. Cloned enzyme was extracted from homogenized cell pellets. The extracted enzyme from sf9 cells was partially purified using His-tag affinity column. The enzyme was stored at −70° C. until use. PDE activity was measured using a SPA (Scintillation Proximity Assay) (GE Healthcare). To evaluate the inhibitory activity, 10 μL of serial diluted compounds were incubated with 20 μL of PDE enzyme in assay buffer (50 mM HEPES-NaOH, 8.3 mM MgCl2, 1.7 mM EGTA, 0.1% BSA (pH 7.4)) for 30 min. at room temperature. Final concentration of DMSO in the assay was 1 percent as compounds were tested in duplicate in 96-well half-area plates (Corning). To start the reaction, 10 μL of substrate [^3H] cGMP (25 or 50 nM; enclosed in SPA kits from GE Healthcare or purchased from PerkinElmer, respectively) was added for a final assay volume of 40 μL. After 60 min incubation at room temperature, yttrium SPA beads containing Zinc sulphate were added (20 μL at 6 mg/mL) to terminate the PDE reaction. After being settled for 60 min, assay plates were counted in a scintillation counter (PerkinElmer) to allow calculation of inhibition rate. Inhibition rate was calculated on the basis of 0% control wells with DMSO and 100% control wells without enzyme.

SMILES | inhibition at 1 µM [%]
Cn1cc(-c2ccc(Nc3nc4ccccc4o3)cc2)c2ncccc21 [Example 1, N-[4-(1-Methyl-1H-pyrrolo[3,2-b]pyridin-3-yl)phenyl]-1,3-benzoxazol-2-amine hydrochloride] | 97.6
CCn1nc(-c2ccc(Oc3nc4ccccc4[nH]3)cc2)c2ncccc21 [Example 3, 3-[4-(1H-Benzimidazol-2-yloxy)phenyl]-1-ethyl-1H-pyrazolo[4,3-b]pyridine] | 97.7
CCn1nc(-c2ccc(Oc3nc4ccccc4n3C)cc2)c2ncccc21 [Example 4, 1-Ethyl-3-{4-[(1-methyl-1H-benzimidazol-2-yl)oxy]phenyl}-1H-pyrazolo[4,3-b]pyridine] | 98.7
CCn1nc(-c2ccc(C(=O)c3nc4ccccc4n3C)cc2)c2ncccc21 [Example 6, [4-(1-Ethyl-1H-pyrazolo[4,3-b]pyridin-3-yl)phenyl] (1-methyl-1H-benzimidazol-2-yl)methanone] | 95
CCn1nc(-c2ccc3c(c2)CCN3c2nc3ccccc3[nH]2)c2ncccc21 [Example 7, 3-[1-(1H-Benzimidazol-2-yl)-2,3-dihydro-1H-indol-5-yl]-1-ethyl-1H-pyrazolo[4,3-b]pyridine] | 101
CCn1nc(-c2ccc(Oc3cn4ccccc4n3)cc2)c2ncccc21 [Example 8, 1-Ethyl-3-[4-(imidazo[1,2-a]pyridin-2-yloxy)phenyl]-1H-pyrazolo[4,3-b]pyridine hydrochloride] | 100
CCn1nc(-c2ccc(Oc3nc4ccccc4[nH]3)nc2)c2ncccc21 [Example 10, 3-[6-(1H-Benzimidazol-2-yloxy)pyridin-3-yl]-1-ethyl-1H-pyrazolo[4,3-b]pyridine] | 99
c1ccc2[nH]c(Oc3ccc(-c4c5n(c6cccnc46)CCCC5)cc3)nc2c1 [Example 13, 10-[4-(1H-Benzimidazol-2-yloxy)phenyl]-6,7,8,9-tetrahydropyrido[2,3-b]indolizine] | 103
CC(C)n1nc(-c2ccc(Oc3nc4cccnc4n3C)cc2)c2ncccc21 [Example 18, 1-(1-Methylethyl)-3-{4-[(3-methyl-3H-imidazo[4,5-b]pyridin-2-yl)oxy]phenyl}-1H-pyrazolo[4,3-b]pyridine] | 100
CCn1nc(-c2ccc(C3CCn4c3nc3ccccc34)cc2)c2ncccc21 (centres unmarked) [Example 24, 3-[4-(1-Ethyl-1H-pyrazolo[4,3-b]pyridin-3-yl)phenyl]-2,3-dihydro-1H-pyrrolo[1,2-a]benzimidazole] | 99
CCn1nc(-c2ccc(Oc3nc4cccnc4n3C)cc2)c2nccnc21 [Example 28, 1-Ethyl-3-{4-[(3-methyl-3H-imidazo[4,5-b]pyridin-2-yl)oxy]phenyl}-1H-pyrazolo[3,4-b]pyrazine] | 101
CCn1nc(-c2ccc(Oc3nc4ccccc4n3CC(C)(C)O)cc2)c2ncccc21 [Example 36, 1-{2-[4-(1-Ethyl-1H-pyrazolo[4,3-b]pyridin-3-yl)phenoxy]-1H-benzimidazol-1-yl}-2-methylpropan-2-ol] | 99
CCn1nc(-c2ccc(Oc3nc4cccnc4n3C)cc2)c2ncc(F)cc21 [Example 37, 1-Ethyl-6-fluoro-3-{4-[(3-methyl-3H-imidazo[4,5-b]pyridin-2-yl)oxy]phenyl}-1H-pyrazolo[4,3-b]pyridine] | 101
CCn1nc(-c2ccc(Oc3nc4cccnc4n3C)cc2)c2ncncc21 [Example 38, 1-Ethyl-3-{4-[(3-methyl-3H-imidazo[4,5-b]pyridin-2-yl)oxy]phenyl}-1H-pyrazolo[4,3-d]pyrimidine] | 103
CC(C)n1nc(-c2ccc(Oc3nc4cccnc4n3C)cc2)c2ncc(F)cc21 [Example 40, 6-Fluoro-1-(1-methylethyl)-3-{4-[(3-methyl-3H-imidazo[4,5-b]pyridin-2-yl)oxy]phenyl}-1H-pyrazolo[4,3-b]pyridine] | 101
Cn1nc(-c2ccc(Oc3nc4cccnc4n3C)cc2)c2ncccc21 [Example 44, 1-Methyl-3-{4-[(3-methyl-3H-imidazo[4,5-b]pyridin-2-yl)oxy]phenyl}-1H-pyrazolo[4,3-b]pyridine] | 107
Cn1nc(-c2ccc(Oc3nc4cccnc4n3C)cc2)c2ncc(F)cc21 [Example 45, 6-Fluoro-1-methyl-3-{4-[(3-methyl-3H-imidazo[4,5-b]pyridin-2-yl)oxy]phenyl}-1H-pyrazolo[4,3-b]pyridine] | 95

Now from value to molecule:

inhibition at 1 µM [%] | SMILES
105 | CCn1nc(-c2ccc(Oc3nc4cccnc4n3CCOC)cc2)c2ncccc21 [Example 34, 1-Ethyl-3-(4-{[3-(2-methoxyethyl)-3H-imidazo[4,5-b]pyridin-2-yl]oxy}phenyl)-1H-pyrazolo[4,3-b]pyridine]
93 | COCCn1c(Oc2ccc(-c3nn(C(C)C)c4cccnc34)cc2)nc2cccnc21 [Example 35]
102 | Cn1c(Oc2ccc(-c3nn(CC(F)F)c4cccnc34)cc2)nc2cccnc21 [Example 39, 1-(2,2-Difluoroethyl)-3-{4-[(3-methyl-3H-imidazo[4,5-b]pyridin-2-yl)oxy]phenyl}-1H-pyrazolo[4,3-b]pyridine]
104 | CCn1nc(-c2ccc(Oc3nc4cccnc4n3CCOC)cc2)c2ncc(F)cc21 [Example 48, 1-Ethyl-6-fluoro-3-(4-{[3-(2-methoxyethyl)-3H-imidazo[4,5-b]pyridin-2-yl]oxy}phenyl)-1H-pyrazolo[4,3-b]pyridine]
103 | COCCn1c(Oc2ccc(-c3nn(CC(F)F)c4cc(F)cnc34)cc2)nc2cccnc21 [Example 49, 1-(2,2-Difluoroethyl)-6-fluoro-3-(4-{[3-(2-methoxyethyl)-3H-imidazo[4,5-b]pyridin-2-yl]oxy}phenyl)-1H-pyrazolo[4,3-b]pyridine]
100 | COCCn1c(Oc2ccc(-c3nn(C)c4cc(F)cnc34)cc2)nc2cccnc21 [Example 50, 6-Fluoro-3-(4-{[3-(2-methoxyethyl)-3H-imidazo[4,5-b]pyridin-2-yl]oxy}phenyl)-1-methyl-1H-pyrazolo[4,3-b]pyridine]
102 | Cn1c(Oc2ccc(-c3nn(CC(F)F)c4cc(F)cnc34)cc2)nc2cccnc21 [Example 51]
101 | COCCn1c(Oc2ccc(-c3nn(CC(F)F)c4cccnc34)cc2)nc2cccnc21 [Example 52, 1-(2,2-Difluoroethyl)-3-(4-{[3-(2-methoxyethyl)-3H-imidazo[4,5-b]pyridin-2-yl]oxy}phenyl)-1H-pyrazolo[4,3-b]pyridine]
